Reference: US4313931A, “Fused dibenzo imidazolo compounds, compositions and use” (Boehringer Ingelheim KG, priority 1980, dated 1982)
Counter-ions that a name gives are not always drawn.

Experiments:
[1] = system: sensitized rats (passive cutaneous anaphylaxis); experiment: passive cutaneous anaphylaxis (PCA) in sensitized rats; assay type: in vivo; conditions: po; rat p.o.
in vivo = conditions: po, mouse p.o.
[2] = system: sensitized rats (passive lung anaphylaxis); experiment: animal or person; conditions: Rattus norvegicus, iv, read-out: PLA ED50
Description: (a) Tests in sensitized rats were performed after passive sensitization of the animals by IgE-antibodies and subsequent antigen challenge. In this manner a passive cutaneous anaphylaxis (GOOSE et al. (1969): Immunology 16, 749) (PCA) and a passive lung anaphylaxis ([…] et al. (1975): Br. J. Pharmac. 55, 57) (PLA, experimental asthma) could be provoked.

## Cl.NC1=NCC2c3ccccc3Cc3cc(Cl)ccc3N12 (centres unmarked) [Example 1(a), 3-amino-7-chloro-9,13b-dihydro-1H-dibenzo[c,f]-imidazo[1,5-a]azepine hydrochloride]
[1]
  ED50: 0.96 mg/kg

## Br.NC1=NCC2c3ccccc3Oc3ccccc3N12 (centres unmarked) [Example 1(c), 3-amino-1,13b-dihydro-dibenzo[b,f]imidazo[1,5-d][1,4]-oxazepine hydrobromide]
[1]
  ED50: 1.1 mg/kg
In vivo
  LD50: 340 mg/kg

## NC1=NCC2c3ccccc3Cc3ccccc3N12 (centres unmarked) [Example 1, 3-Amino-9,13b-dihydro-1H-dibenzo[c,f]imidazo[1,5-a]azepine hydrobromide]
[1]
  ED50: 6 mg/kg
[2]
  ED50: 0.052 mg/kg

## Br.NC1=NCC2c3cc(Cl)ccc3Sc3ccccc3N12 (centres unmarked) [Example 1(l), 3-amino-12-chloro-1,13b-dihydro-dibenzo[b,f]imidazo[1,5-d][1,4]thiazepine hydrobromide]
[1]
  ED50: 5.4 mg/kg

## NC1=NCC2c3cc(Cl)ccc3Oc3ccccc3N12 (centres unmarked) [Example 1(d), 3-amino-12-chloro-1,13b-dihydro[b,f]imidazo[1,5-d][1,4]oxazepine hydrobromide]
[1]
  ED50: 2.5 mg/kg

## Br.NC1=NCC2c3ccccc3Sc3ccccc3N12 (centres unmarked) [Example 1(i), 3-amino-1,13b-dihydro-dibenzo[b,f]imidazo[1,5-d][1,4]-thiazepine hydrobromide]
[1]
  ED50: 3.8 mg/kg
